Experimental data from ChEMBL document CHEMBL5143734, “Seco-Lupane Triterpene Derivatives Induce Ferroptosis through GPX4/ACSL4 Axis and Target Cyclin D1 to Block the Cell Cycle” (J Med Chem, 2022).

What was measured:
Type in all cases: functional, cell-based
PC-3M = assay: Cytotoxicity against human PC-3M cells assessed as reduction in cell viability by CCK-8 assay
A549 = assay: Cytotoxicity against human A549 cells assessed as reduction in cell viability by CCK-8 assay
PANC-1 = assay: Cytotoxicity against human PANC-1 cells assessed as reduction in cell viability by CCK-8 assay
HepG2 = assay: Cytotoxicity against human HepG2 cells assessed as reduction in cell viability by CCK-8 assay
MCF7 = assay: Cytotoxicity against human MCF7 cells assessed as reduction in cell viability by CCK-8 assay

Compound | IC50 (PC-3M) [µM] | IC50 (A549) [µM] | IC50 (PANC-1) [µM] | IC50 (HepG2) [µM] | IC50 (MCF7) [µM]
C=C(C)[C@@H]1CC[C@]2(C(=O)OCCCn3ccnc3C)CC[C@]3(C)[C@H](C[C@H]4OC(=O)C[C@@H](O)[C@]5(C)[C@@H]4[C@@]3(C)CC[C@H]5C(=C)C)[C@@H]12 | 16 | 21.5 | 24.8 | 14.6 | 46.8
C=C(C)[C@@H]1CC[C@]2(C(=O)OCCCCCCCCCCn3cnc(C)c3)CC[C@]3(C)[C@H](C[C@H]4OC(=O)C[C@@H](O)[C@]5(C)[C@@H]4[C@@]3(C)CC[C@H]5C(=C)C)[C@@H]12 | 13.9 | 16.7 | 9.92 | 5.79 | 35.8
C=C(C)[C@@H]1CC[C@]2(C(=O)OCCCn3cc(CCN)c4ccccc43)CC[C@]3(C)[C@H](C[C@@H](O)[C@@H]4[C@@]5(C)C(CC(=O)OC)OC(C)(C)C5CC[C@]43C)[C@@H]12 (stereo not given in full) | 7.6 | 7.67 | 7.04 | 2.51 | 8.05
C=C(C)[C@@H]1CC[C@]2(C(=O)OCCCCn3ccnc3)CC[C@]3(C)[C@H](C[C@@H](O)[C@@H]4[C@@]5(C)C(CC(=O)OC)OC(C)(C)C5CC[C@]43C)[C@@H]12 (stereo not given in full) | 44.3 | 36.7 | 53.4 | 26 | 75.2
C=C(C)[C@@H]1CC[C@]2(C(=O)OCCCCn3ccnc3CC)CC[C@]3(C)[C@H](C[C@H]4OC(=O)C[C@@H](O)[C@]5(C)[C@@H]4[C@@]3(C)CC[C@H]5C(=C)C)[C@@H]12 | 12.1 | 19.5 | 16.1 | 14.6 | 91.1
C=C(C)[C@@H]1CC[C@]2(C(=O)O)CC[C@]3(C)[C@H](C[C@@H](O)[C@@H]4[C@@]5(C)C(CC(=O)OC)OC(C)(C)C5CC[C@]43C)[C@@H]12 (stereo not given in full) | 103 | > 200 | > 200 | > 200 | > 200
C=C(C)[C@@H]1CC[C@]2(C(=O)OCCCCCCn3cncn3)CC[C@]3(C)[C@H](C[C@H]4OC(=O)C[C@@H](O)[C@]5(C)[C@@H]4[C@@]3(C)CC[C@H]5C(=C)C)[C@@H]12 | 56 | 24.6 | 19.5 | 23.8 | 103
C=C(C)[C@@H]1CC[C@]2(C(=O)OCCCCCCCCCCn3ccnc3CC)CC[C@]3(C)[C@H](C[C@H]4OC(=O)C[C@@H](O)[C@]5(C)[C@@H]4[C@@]3(C)CC[C@H]5C(=C)C)[C@@H]12 | 13.9 | 15.1 | 9.93 | 4.36 | 30.9
C=C(C)[C@@H]1CC[C@]2(C(=O)OCCCCn3cnc(C)c3)CC[C@]3(C)[C@H](C[C@@H](O)[C@@H]4[C@@]5(C)C(CC(=O)OC)OC(C)(C)C5CC[C@]43C)[C@@H]12 (stereo not given in full) | 25 | 35.4 | 38.9 | 19.9 | 65.6
C=C(C)[C@@H]1CC[C@]2(C(=O)OCCCn3ccnc3CC)CC[C@]3(C)[C@H](C[C@H]4OC(=O)C[C@@H](O)[C@]5(C)[C@@H]4[C@@]3(C)CC[C@H]5C(=C)C)[C@@H]12 | 12.3 | 21.2 | 26.9 | 16.4 | 47
C=C(C)[C@@H]1CC[C@]2(C(=O)OCCCn3ccnc3)CC[C@]3(C)[C@H](C[C@H]4OC(=O)C[C@@H](O)[C@]5(C)[C@@H]4[C@@]3(C)CC[C@H]5C(=C)C)[C@@H]12 | 24.7 | 55.5 | 89.1 | > 200 | 48.6
C=C(C)[C@@H]1CC[C@]2(C(=O)OCCCCCCn3ccnc3CC)CC[C@]3(C)[C@H](C[C@@H](O)[C@@H]4[C@@]5(C)C(CC(=O)OC)OC(C)(C)C5CC[C@]43C)[C@@H]12 (stereo not given in full) | 19.6 | 24.1 | 18.5 | 16.9 | 34.5
C=C(C)[C@@H]1CC[C@]2(C(=O)OCCCCCn3ccnc3)CC[C@]3(C)[C@H](C[C@@H](O)[C@@H]4[C@@]5(C)C(CC(=O)OC)OC(C)(C)C5CC[C@]43C)[C@@H]12 (stereo not given in full) | 30.6 | 34.9 | 50 | 24.6 | 65.1
C=C(C)[C@@H]1CC[C@]2(C(=O)OCCCCBr)CC[C@]3(C)[C@H](C[C@H]4OC(=O)C[C@@H](O)[C@]5(C)[C@@H]4[C@@]3(C)CC[C@H]5C(=C)C)[C@@H]12 | 82.2 | 89 | 200 | 124 | > 200
C=C(C)[C@@H]1CC[C@]2(C(=O)OCCCCCCCCCCn3cc(CCN)c4ccccc43)CC[C@]3(C)[C@H](C[C@H]4OC(=O)C[C@@H](O)[C@]5(C)[C@@H]4[C@@]3(C)CC[C@H]5C(=C)C)[C@@H]12 | 5.69 | 6.59 | 5.59 | 1.68 | 5.48
C=C(C)[C@@H]1CC[C@]2(C(=O)O)CC[C@]3(C)[C@H](C[C@H]4OC(=O)C[C@@H](O)[C@]5(C)[C@@H]4[C@@]3(C)CC[C@H]5C(=C)C)[C@@H]12 | 134 | 145 | > 200 | > 200 | > 200
C=C(C)[C@@H]1CC[C@]2(C(=O)OCCCCCCn3cnc(C)c3)CC[C@]3(C)[C@H](C[C@H]4OC(=O)C[C@@H](O)[C@]5(C)[C@@H]4[C@@]3(C)CC[C@H]5C(=C)C)[C@@H]12 | 12.2 | 14.2 | 13.3 | 3.64 | 44.9
C=C(C)[C@@H]1CC[C@]2(C(=O)OCCCCn3cncn3)CC[C@]3(C)[C@H](C[C@H]4OC(=O)C[C@@H](O)[C@]5(C)[C@@H]4[C@@]3(C)CC[C@H]5C(=C)C)[C@@H]12 | 18.1 | 31.3 | 60.5 | 110 | 46.2
C=C(C)[C@@H]1CC[C@]2(C(=O)OCCCCCCCCCCn3cnc(C)c3)CC[C@]3(C)[C@H](C[C@@H](O)[C@@H]4[C@@]5(C)C(CC(=O)OC)OC(C)(C)C5CC[C@]43C)[C@@H]12 (stereo not given in full) | 12.7 | 22.4 | 12.3 | 6.76 | 33.7
C=C(C)[C@@H]1CC[C@]2(C(=O)OCCCCCn3cnc(C)c3)CC[C@]3(C)[C@H](C[C@H]4OC(=O)C[C@@H](O)[C@]5(C)[C@@H]4[C@@]3(C)CC[C@H]5C(=C)C)[C@@H]12 | 14.8 | 12.9 | 26.5 | 10.6 | 95.8
C=C(C)[C@@H]1CC[C@]2(C(=O)OCCCn3ccnc3C)CC[C@]3(C)[C@H](C[C@@H](O)[C@@H]4[C@@]5(C)C(CC(=O)OC)OC(C)(C)C5CC[C@]43C)[C@@H]12 (stereo not given in full) | 34.4 | 24.9 | 50.6 | 22.6 | 69.5
C=C(C)[C@@H]1CC[C@]2(C(=O)OCCCCCBr)CC[C@]3(C)[C@H](C[C@H]4OC(=O)C[C@@H](O)[C@]5(C)[C@@H]4[C@@]3(C)CC[C@H]5C(=C)C)[C@@H]12 | 14.5 | 19.8 | 43.1 | 14.3 | 56.1
